Results from patent US4888287A, “Rapid differentiation of fungi from bacteria using polyene antibiotics” (Eastman Kodak Company, priority 1986, dated 1989).

Assay: Reduction potential E1/2 of the quinone nucleus of RIND compounds (Table I)
Type: physicochemical
Details: quinone nucleus with H in place of the releasing group; aqueous emulsion, DMF, nonionic surfactant, phosphate buffer pH 7; standard calomel electrode
Text: Examples of such nuclei are presented below.
Preferably, the E1/2 is from about +100 mV to about +400 mV as measured in water, or from about -650 to about -300 mV as measured in acetonitrile. […] Further details of measuring the E1/2 are described below prior to Table I. The desired E1/2 is achieved by appropriate electron withdrawing groups on the CAR-nucleus, or by a strained fused ring attached to the nucleus or by a combination of both.
Representative RIND compounds are listed in Table I below in reference to the following structure: [drawing 3] The E1/2 values in Table I were determined for the quinone nucleus of this structure having a hydrogen atom in place of [drawing 4] The E1/2 values (where available) were measured in an aqueous emulsion of the quinone dissolved in N,N-dimethylformamide, a nonionic surfactant (for example, TRITON X-100) and sodium phosphate buffer (pH 7). A standard calomel electrode was used as a standard. Some E1/2 values (denoted by *) were measured in acetonitrile using a saturated calomel electrode as a standard. E1/2 values not available are denoted by "NA".

Compound | E1/2
CC(C1=C(CN(C)C(=O)Oc2ccc(N=Nc3ccc([N+](=O)[O-])cc3S(C)(=O)=O)c3c(NS(=O)(=O)c4cccc(S(N)(=O)=O)c4)cccc23)C(=O)C(C(C)c2ccc([N+](=O)[O-])cc2)=C(CN(C)C(=O)Oc2ccc(N=Nc3ccc([N+](=O)[O-])cc3S(C)(=O)=O)c3c(NS(=O)(=O)c4cccc(S(N)(=O)=O)c4)cccc23)C1=O)c1ccc([N+](=O)[O-])cc1 (stereo not shown) [II] | +236 mV
CN(CC1=C(c2ccc(C#N)cc2)C(=O)C2=C(CCCC2)C1=O)C(=O)Oc1ccc(N=Nc2ccc([N+](=O)[O-])cc2S(C)(=O)=O)c2c(NS(=O)(=O)c3cccc(S(N)(=O)=O)c3)cccc12 [IX] | +220 mV
CN(CC1=C(c2ccc(C(=O)O)cc2)C(=O)C2=C(CCCC2)C1=O)C(=O)Oc1ccc2c3c(cccc13)C(=O)C=C2 [RIND Compound XXXV] | +220 mV
CC(C)NS(=O)(=O)c1ccc(C2=C(CN(C)C(=O)Oc3ccc(N=Nc4ccc([N+](=O)[O-])cc4S(C)(=O)=O)c4c(NS(=O)(=O)c5cccc(S(N)(=O)=O)c5)cccc34)C(=O)C3=C(CCCC3)C2=O)cc1 [VIII] | +212 mV
CN(CC1=C(c2ccc([N+](=O)[O-])cc2)C(=O)C2=C(CCCC2)C1=O)C(=O)Oc1ccc(N=Nc2ccc([N+](=O)[O-])cc2S(C)(=O)=O)c2c(NS(=O)(=O)c3cccc(S(N)(=O)=O)c3)cccc12 [VII] | +236 mV
CN(CC1=C(c2ccccc2)C(=O)C2=C(CCCC2)C1=O)C(=O)Oc1ccc(N=Nc2ccc([N+](=O)[O-])cc2S(C)(=O)=O)c2c(NS(=O)(=O)c3cccc(S(N)(=O)=O)c3)cccc12 [VI] | +180 mV
CN(CC1=C(c2cccc([N+](=O)[O-])c2)C(=O)C2=C(CCCC2)C1=O)C(=O)Oc1ccc(N=Nc2ccc([N+](=O)[O-])cc2S(C)(=O)=O)c2c(NS(=O)(=O)c3cccc(S(N)(=O)=O)c3)cccc12 [V] | +214 mV
CC(=O)c1ccc(C2=C(CN(C)C(=O)Oc3ccc(N=Nc4ccc([N+](=O)[O-])cc4S(C)(=O)=O)c4c(NS(=O)(=O)c5cccc(S(N)(=O)=O)c5)cccc34)C(=O)C3=C(CCCC3)C2=O)cc1 [XIII] | +212 mV
CCCCCCCCCCC(=O)c1ccc(C2=C(CN(C)C(=O)Oc3ccc(N=Nc4ccc([N+](=O)[O-])cc4S(C)(=O)=O)c4c(NS(=O)(=O)c5cccc(S(N)(=O)=O)c5)cccc34)C(=O)C3=C(CCCC3)C2=O)cc1 [XII] | +206 mV
CN(CC1=C(c2ccc(Br)cc2)C(=O)C2=C(CCCC2)C1=O)C(=O)Oc1ccc(N=Nc2ccc([N+](=O)[O-])cc2S(C)(=O)=O)c2c(NS(=O)(=O)c3cccc(S(N)(=O)=O)c3)cccc12 [XIV] | +192 mV
CN(CC1=C(c2ccccc2)C(=O)C2=C(C1=O)C1C=CC2C1)C(=O)Oc1ccc(N=Nc2ccc([N+](=O)[O-])cc2S(C)(=O)=O)c2c(NS(=O)(=O)c3cccc(S(N)(=O)=O)c3)cccc12 (stereo not shown) [XIX] | +242 mV
CN(CC1=C(c2cc([N+](=O)[O-])cc([N+](=O)[O-])c2)C(=O)C2=C(CCCC2)C1=O)C(=O)Oc1ccc(N=Nc2ccc([N+](=O)[O-])cc2S(C)(=O)=O)c2c(NS(=O)(=O)c3cccc(S(N)(=O)=O)c3)cccc12 [XI] | +186 mV
CN(CC1=C(c2ccc(C#N)cc2)C(=O)C2=C(CC=CC2)C1=O)C(=O)Oc1ccc(N=Nc2ccc([N+](=O)[O-])cc2S(C)(=O)=O)c2c(NS(=O)(=O)c3cccc(S(N)(=O)=O)c3)cccc12 [XVII] | +240 mV
CCCCCCCCCCCCN(CC1=C(c2ccc(C#N)cc2)C(=O)C2=C(CCCC2)C1=O)C(=O)Oc1ccc(N=Nc2ccc([N+](=O)[O-])cc2S(C)(=O)=O)c2c(NS(=O)(=O)c3cccc(S(N)(=O)=O)c3)cccc12 [XVI] | +220 mV
CN(CC1=CC(=O)C2=C(CCCC2)C1=O)C(=O)Oc1ccc(N=Nc2ccc([N+](=O)[O-])cc2S(C)(=O)=O)c2c(NS(=O)(=O)c3cccc(S(N)(=O)=O)c3)cccc12 [XV] | +213 mV
Cc1cc(=O)oc2cc(OC(=O)N(C)CC3=C(c4cccc([N+](=O)[O-])c4)C(=O)C4=C(CCCC4)C3=O)ccc12 [XXIII] | +214 mV
CN(CC1=C(c2cc(Cl)ccc2Cl)C(=O)C2=C(CCC2)C1=O)C(=O)Oc1ccc(N=Nc2ccc([N+](=O)[O-])cc2S(C)(=O)=O)c2c(NS(=O)(=O)c3cccc(S(N)(=O)=O)c3)cccc12 [XXIV] | +236 mV
CN(CC1=C(c2ccc(C#N)cc2)C(=O)C2=C(CCCC2)C1=O)C(=O)Oc1ccc2c3c(cccc13)C(=O)C=C2 [XXIX] | +220 mV
CC1CCC(C)C2=C1C(=O)C(CN(C)C(=O)Oc1ccc(N=Nc3ccc([N+](=O)[O-])cc3S(C)(=O)=O)c3c(NS(=O)(=O)c4cccc(S(N)(=O)=O)c4)cccc13)=C(c1ccccc1)C2=O (stereo not shown) [XXVII] | +122 mV
CCCCCCCCCCCCC1CC2=C(C1)C(=O)C(c1ccccc1)=C(CN(C)C(=O)Oc1ccc(N=Nc3ccc([N+](=O)[O-])cc3S(C)(=O)=O)c3c(NS(=O)(=O)c4cccc(S(N)(=O)=O)c4)cccc13)C2=O (stereo not shown) [XXV] | +222 mV
CN(CC1=C(c2ccc([N+](=O)[O-])cc2)C(=O)C2=C(CCCC2)C1=O)C(=O)Oc1ccc2c3c(cccc13)C(=O)C=C2 [XXXIII] | +236 mV
CN(CC1=C(c2cccc([N+](=O)[O-])c2)C(=O)C2=C(CCCC2)C1=O)C(=O)Oc1ccc2c3c(cccc13)C(=O)C=C2 [XXXII] | +214 mV
CN(CC1=C(c2cc(Cl)ccc2Cl)C(=O)C2=C(CCC2)C1=O)C(=O)Oc1ccc2c3c(cccc13)C(=O)C=C2 [XXXI] | +236 mV
CC1=C(C)C(=O)C(c2ccccc2)=C(CN(C)C(=O)Oc2ccc(N=Nc3ccc([N+](=O)[O-])cc3S(C)(=O)=O)c3c(NS(=O)(=O)c4cccc(S(N)(=O)=O)c4)cccc23)C1=O [XXXVI] | +144 mV
CN(CC1=C(c2ccccc2)C(=O)C2=C(CCC2)C1=O)C(=O)Oc1ccc2c3c(cccc13)C(=O)C=C2 [XXX] | +222 mV
CN(CC1=C(c2ccccc2)C(=O)C2=C(CCC2)C1=O)C(=O)Oc1ccc(N=Nc2ccc([N+](=O)[O-])cc2S(C)(=O)=O)c2c(NS(=O)(=O)c3cccc(S(N)(=O)=O)c3)cccc12 [XX] | +222 mV
COc1cccc(C2=C(CN(C)C(=O)Oc3ccc(N=Nc4ccc([N+](=O)[O-])cc4S(C)(=O)=O)c4c(NS(=O)(=O)c5cccc(S(N)(=O)=O)c5)cccc34)C(=O)C3=C(CCCC3)C2=O)c1 [X] | +154 mV

Same assay, conditions: quinone nucleus with H in place of the releasing group; denoted *: measured in acetonitrile, saturated calomel electrode

Compound | E1/2 [mV]
CN(CC1=C(c2ccccc2)C(=O)C(CN(C)C(=O)Oc2ccc(N=Nc3ccc([N+](=O)[O-])cc3S(C)(=O)=O)c3c(NS(=O)(=O)c4cccc(S(N)(=O)=O)c4)cccc23)=C(c2ccccc2)C1=O)C(=O)Oc1ccc(N=Nc2ccc([N+](=O)[O-])cc2S(C)(=O)=O)c2c(NS(=O)(=O)c3cccc(S(N)(=O)=O)c3)cccc12 [IV] | -460
CCCCCCCCCCNS(=O)(=O)c1ccc(C(C)C2=C(CN(C)C(=O)Oc3ccc(N=Nc4ccc([N+](=O)[O-])cc4S(C)(=O)=O)c4c(NS(=O)(=O)c5cccc(S(N)(=O)=O)c5)cccc34)C(=O)C(C(C)c3ccc(S(=O)(=O)NCCCCCCCCCC)cc3)=C(CN(C)C(=O)Oc3ccc(N=Nc4ccc([N+](=O)[O-])cc4S(C)(=O)=O)c4c(NS(=O)(=O)c5cccc(S(N)(=O)=O)c5)cccc34)C2=O)cc1 (stereo not shown) [I] | -528
CCCCCCCCCCNS(=O)(=O)c1ccc(C(C)C2=C(CN(C)C(=O)Oc3ccc4c(C)cc(=O)oc4c3)C(=O)C(C(C)c3ccc(S(=O)(=O)NCCCCCCCCCC)cc3)=C(CN(C)C(=O)Oc3ccc4c(C)cc(=O)oc4c3)C2=O)cc1 (stereo not shown) [XXII] | -528
CCCCCCCCCCNS(=O)(=O)c1ccc(C(C)C2=C(CN(C)C(=O)Oc3ccc(N=Nc4cccc(S(N)(=O)=O)c4)c4c(NS(C)(=O)=O)cccc34)C(=O)C(C(C)c3ccc(S(=O)(=O)NCCCCCCCCCC)cc3)=C(CN(C)C(=O)Oc3ccc(N=Nc4cccc(S(N)(=O)=O)c4)c4c(NS(C)(=O)=O)cccc34)C2=O)cc1 (stereo not shown) [XXI] | -528
